The text below walks through data of ChEMBL document CHEMBL5352497, “Aromatic hydrazides: A potential solution for Acinetobacter baumannii infections” (Eur J Med Chem, 2023).

Molecules are shown by their SMILES. Converted amounts (≈) assume the structure as drawn. The source made the active and inactive calls. Bounds are passed on as bounds.

Data set [1] relates to Bacillus anthracis. Nature of the data set: Antibacterial activity against Bacillus anthracis Sterne F32. In kind it is functional.
The test system of data set [2] is Staphylococcus aureus. Nature of the data set: Antibacterial activity against Staphylococcus aureus ATCC 25923. In kind it is functional.
Data set [3] has as its system Staphylococcus epidermidis. Description: Antibacterial activity against Staphylococcus epidermidis ATCC 12228. In kind it is functional.
Data set [4] deals with Escherichia coli. Description: Antibacterial activity against Escherichia coli MC1061. In kind it is functional.
Data set [5] deals with Klebsiella pneumoniae. Nature of the data set: Antibacterial activity against Klebsiella pneumoniae ATCC 27736. In kind it is functional.
The subject of data set [6] is Salmonella enterica. Nature of the data set: Antibacterial activity against Salmonella enterica ATCC 14028. In kind it is functional.
For data set [7], the system named is Acinetobacter baumannii. Nature of the data set: Antibacterial activity against Acinetobacter baumannii ATCC 19606. In kind it is functional.
Data set [8] has as its system Acinetobacter baumannii. Description: Antibacterial activity against Acinetobacter baumannii BAA1605. In kind it is functional.
Data set [9] deals with Acinetobacter baumannii. Nature of the data set: Bacteriostatic activity against Acinetobacter baumannii ATCC 19606 assessed as reduction in colony forming unit incubated for 9 hrs. In kind it is functional, organism-based.
The subject of data set [10] is Acinetobacter baumannii. Description: Bacteriostatic activity against Acinetobacter baumannii ATCC 19606 assessed as reduction in colony forming unit incubated for 24 hrs. In kind it is functional, organism-based.
Data set [11] can be described thus: Hemolytic activity in mouse RBC at 8 ug/ml incubated for 1 hr. In kind it is toxicity, cell-based, Erythrocyte. The note with it: red blood cells (erythrocytes), at 8 µg/mL, read-out: Activity.
The subject of data set [12] is Erythrocyte. Nature of the data set: (§1) Hemolytic activity in mouse RBC at 32 ug/ml incubated for 1 hr. As to conditions: erythrocyte, 1 h, dose 32 µg/ml. In kind it is toxicity, cell-based.
For data set [13], the system named is Acinetobacter baumannii. Nature of the data set: microbe, parasite or virus in culture. The note with it: ATCC 19606.
Data set [14] has as its system HEK293. Nature of the data set: Cytotoxicity against HEK293 cells at 8 ug/ml. In kind it is toxicity, cell-based. As to conditions: human, dose 8 µg/ml.
Data set [15] concerns HEK293. Nature of the data set: Cytotoxicity against HEK293 cells at 32 ug/ml. In kind it is toxicity, cell-based. The note with it: human, at 32 µg/mL.
Data set [16] is described as follows: as §1. In kind it is toxicity, cell-based, Erythrocyte. As to conditions: red blood cells (erythrocytes), at 32 µg/mL, read-out: Activity.
Data set [17] relates to Enterobacter cloacae. Nature of the data set: Antibacterial activity against Enterobacter cloacae ATCC 13047. In kind it is functional.
In data set [18] the test system is Pseudomonas aeruginosa. Description: Antibacterial activity against Pseudomonas aeruginosa ATCC 27853. In kind it is functional.
For data set [19], the system named is Acinetobacter baumannii. Nature of the data set: Bactericidal activity against Acinetobacter baumannii ATCC 19606 assessed as reduction in colony forming unit at 1 to 4 times MIC measured after 24 hrs. In kind it is functional, organism-based.
Data set [20] deals with Acinetobacter baumannii. Description: Antibiofilm activity against Acinetobacter baumannii ATCC 19606 assessed as inhibition of biofilm formation at 0.5 ug/ml by crystal violet assay. Set-up: scale not given: the % may be the effect or the level left. As to conditions: dose 0.5 µg/ml. In kind it is functional.
For data set [21], the system named is Acinetobacter baumannii. Nature of the data set: Induction of resistance development in Acinetobacter baumannii ATCC 19606 assessed as fold increase in MIC measured after 15 passages. In kind it is functional.

Turning to `O=C(O)c1cn(C2CC2)c2cc(N3CCNCC3)c(F)cc2c1=O` [CIPROFLOXACIN], the MIC in data set [1] was 1 µg/mL (≈ 3.02 µM); in data set [2] it was at most 0.063 µg/mL; in data set [3] it was at most 0.063 µg/mL; in data set [4], at most 0.063 µg/mL; in [5], at most 0.063 µg/mL; in [6] it was at most 0.063 µg/mL. For the same molecule, the values for the MIC in data set [7], in data set [8] and in [13] were 1 µg/mL (≈ 3.02 µM), 2 µg/mL (≈ 6.04 µM) and 2 µg/mL (≈ 6.04 µM), respectively. For the same molecule, the result in data set [9] and in [10] was Active. For the same molecule, in data set [11], the hemolysis at 1 h, 8 ug/ml was under 10%. In data set [12], the Activity entry is “Non-Toxic”.

For the molecule `O=C(NNc1cccc(F)c1)c1ccc2ccccc2n1`, the figures for the Activity entry in data set [14] and in data set [15] were “Non-Toxic” and 40%, respectively. Also, the hemolysis at 1 h, 8 ug/ml in [11] was under 10%. The hemolysis at 1 h, 32 ug/ml in [16] is 20%.

For `O=C(NNc1ccc(Cl)cc1)c1ccc(F)cn1`, the MIC in data set [1] was over 64 µg/mL; in data set [2], over 64 µg/mL; in [3], over 64 µg/mL; in data set [4], 16 µg/mL (≈ 60.2 µM); in data set [17], 16 µg/mL (≈ 60.2 µM); in data set [5], 64 µg/mL (≈ 241 µM). Further, the MIC is over 64 µg/mL in data set [18], 64 µg/mL (≈ 241 µM) in data set [6], 1 µg/mL (≈ 3.76 µM) in [7] and at most 0.125 µg/mL in data set [8]. Further, the outcome in data set [19] was Active. In addition, the Activity in data set [20] is listed as 30%; in data set [14] it was “Non-Toxic”; in [15], 17%; in [12] it was “Non-Toxic”. In addition, the hemolysis at 1 h, 8 ug/ml in data set [11] was under 10%. In addition, the “fold change (FC)” value in [21] was 2.

Turning to `O=C(NNc1ccc(Cl)cc1)c1ccccn1`, the MIC in data set [1] is over 64 µg/mL; in data set [2] it was over 64 µg/mL; in [3], over 64 µg/mL; in data set [4], 16 µg/mL (≈ 64.6 µM); in data set [17], 64 µg/mL (≈ 258 µM); in data set [5], 64 µg/mL (≈ 258 µM). For the same molecule, the MIC was over 64 µg/mL in data set [18], 64 µg/mL (≈ 258 µM) in data set [6], 0.25 µg/mL (≈ 1.01 µM) in [7] and 0.25 µg/mL (≈ 1.01 µM) in [8]. Moreover, the Activity entry in [14] and in [12] was “Non-Toxic” in each case. Also, in data set [11], the hemolysis at 1 h, 8 ug/ml is under 10%.

For the molecule `COc1ccc(NNC(=O)c2ccc(F)cn2)cc1`, the MIC in [1], in data set [2], in data set [3], in data set [4], in data set [17] and in data set [5] was over 64 µg/mL in each case. Also, the MIC in data set [18] was over 64 µg/mL; in [6], over 64 µg/mL; in [7], 1 µg/mL (≈ 3.83 µM); in data set [8] it was 0.5 µg/mL (≈ 1.91 µM). For the same molecule, the Activity entry in [14] and in [12] was “Non-Toxic” each time. Moreover, in data set [11], the hemolysis at 1 h, 8 ug/ml was under 10%.

On to `O=C(NNc1ccc(Cl)cc1)c1cccc(F)n1`, for which the MIC in data set [1] is over 64 µg/mL; in data set [2], over 64 µg/mL; in [3] it was over 64 µg/mL; in data set [4], 16 µg/mL (≈ 60.2 µM); in [17], 16 µg/mL (≈ 60.2 µM); in data set [5], 16 µg/mL (≈ 60.2 µM). The MIC is over 64 µg/mL in data set [18], 16 µg/mL (≈ 60.2 µM) in [6], at most 0.125 µg/mL in data set [7] and at most 0.125 µg/mL in data set [8]. Also, the Activity result in data set [14] and in [12] was “Non-Toxic” each time. For the same molecule, the hemolysis at 1 h, 8 ug/ml in data set [11] is under 10%.

On to `O=C(NNc1ccc(F)cc1)c1ccc(F)cn1`, for which the MIC in data set [1] was over 64 µg/mL; in data set [2] it was over 64 µg/mL; in data set [3] it was over 64 µg/mL; in data set [4], 64 µg/mL (≈ 257 µM); in [17] it was 64 µg/mL (≈ 257 µM); in [5] it was 64 µg/mL (≈ 257 µM). In addition, the MIC is over 64 µg/mL in data set [18], 64 µg/mL (≈ 257 µM) in data set [6], 0.5 µg/mL (≈ 2.01 µM) in data set [7] and 0.25 µg/mL (≈ 1 µM) in [8]. For the same molecule, the Activity entry in data set [14] and in [12] was “Non-Toxic” each time. For the same molecule, in [11], the hemolysis at 1 h, 8 ug/ml is under 10%.

Turning to `O=C(NNc1ccc(Cl)cc1)c1ccccc1`, the MIC in data set [1] is over 64 µg/mL; in data set [2], 64 µg/mL (≈ 259 µM); in data set [3], 64 µg/mL (≈ 259 µM); in [4], 16 µg/mL (≈ 64.9 µM); in data set [17], 16 µg/mL (≈ 64.9 µM); in data set [5] it was 16 µg/mL (≈ 64.9 µM). Moreover, the MIC in data set [18] was over 64 µg/mL; in data set [6] it was 64 µg/mL (≈ 259 µM); in data set [7] it was 0.25 µg/mL (≈ 1.01 µM); in [8], 0.5 µg/mL (≈ 2.03 µM). Also, the Activity result in data set [14] and in data set [12] was “Non-Toxic” in each case. Also, the hemolysis at 1 h, 8 ug/ml in data set [11] is under 10%.

For `O=C(NNc1ccc(Cl)cc1)c1cc2ccccc2[nH]1`, the MIC in data set [1], in [2], in data set [3], in data set [4], in data set [17] and in data set [5] was over 64 µg/mL in each case. Further, the MIC in [18] is over 64 µg/mL; in data set [6], over 64 µg/mL; in data set [7], 0.5 µg/mL (≈ 1.75 µM); in [8], 0.25 µg/mL (≈ 0.875 µM). Also, the Activity result in data set [14] and in data set [12] was “Non-Toxic” throughout. Further, in [11], the hemolysis at 1 h, 8 ug/ml is under 10%.

On to `CCOC(=O)CNNC(=O)c1ccc2ccccc2n1`, for which the MIC in [1], in [2], in [3], in data set [4], in data set [17] and in [5] was over 64 µg/mL throughout. Besides, the MIC in [18], in data set [6], in [7] and in data set [8] was over 64 µg/mL in each case. Further, the Activity entry in data set [14] and in data set [12] was “Non-Toxic” in each case. Moreover, in [11], the hemolysis at 1 h, 8 ug/ml was under 10%.

With `O=C(NNc1ccc(Cl)cc1)c1ccc(F)cc1F`, the MIC was over 64 µg/mL in data set [1]; over 64 µg/mL in data set [2]; over 64 µg/mL in data set [3]; 16 µg/mL (≈ 56.6 µM) in data set [4]; 16 µg/mL (≈ 56.6 µM) in data set [17]; over 64 µg/mL in [5]. In addition, the MIC in data set [18] is over 64 µg/mL; in data set [6], over 64 µg/mL; in [7], 0.25 µg/mL (≈ 0.884 µM); in data set [8] it was 0.25 µg/mL (≈ 0.884 µM). Moreover, the Activity entry in [14] and in [12] was “Non-Toxic” in each case. Besides, in data set [11], the hemolysis at 1 h, 8 ug/ml is under 10%.
